US10137202B2 (priority 2014, dated 2018)
Square brackets hold non-standard residues; d marks the D form. Peptide text beside a SMILES is read from it. * marks the point of attachment. Dolaproine = CO[C@@H]([C@@H]1CCCN1)[C@@H](C)C(=O)O; Dil = CC[C@H](C)[C@H](NC)[C@@H](CC(=O)O)OC; X3 = C[C@@H](N*)[C@@H](O)c1ccccc1; NMeV = CN[C@H](C(=O)O)C(C)C

System: HT1080 cells
Type: cell-based, human
Settings: read-out: IC50 (CPA assay; nM)

SMILES: CC[C@H](C)[C@@H]([C@@H](CC(=O)N1CCC[C@H]1[C@H](OC)[C@@H](C)C(=O)N[C@H](C)[C@@H](O)c1ccccc1)OC)N(C)C(=O)[C@@H](NC(=O)[C@@H](NC)C(C)C)C(C)C [MMAE, reference compound] (H-[NMeV]V[Dil][Dolaproine]-X3)
- IC50: 0.1 to 0.6 nM
